Results from publication PMC8979230 (RSC Advances, 2022).

Molecular target: PDE10A (Homo sapiens, UniProt Q9Y233)
Assay type: biochemical

Sequence of PDE10A (Q9Y233 whole entry): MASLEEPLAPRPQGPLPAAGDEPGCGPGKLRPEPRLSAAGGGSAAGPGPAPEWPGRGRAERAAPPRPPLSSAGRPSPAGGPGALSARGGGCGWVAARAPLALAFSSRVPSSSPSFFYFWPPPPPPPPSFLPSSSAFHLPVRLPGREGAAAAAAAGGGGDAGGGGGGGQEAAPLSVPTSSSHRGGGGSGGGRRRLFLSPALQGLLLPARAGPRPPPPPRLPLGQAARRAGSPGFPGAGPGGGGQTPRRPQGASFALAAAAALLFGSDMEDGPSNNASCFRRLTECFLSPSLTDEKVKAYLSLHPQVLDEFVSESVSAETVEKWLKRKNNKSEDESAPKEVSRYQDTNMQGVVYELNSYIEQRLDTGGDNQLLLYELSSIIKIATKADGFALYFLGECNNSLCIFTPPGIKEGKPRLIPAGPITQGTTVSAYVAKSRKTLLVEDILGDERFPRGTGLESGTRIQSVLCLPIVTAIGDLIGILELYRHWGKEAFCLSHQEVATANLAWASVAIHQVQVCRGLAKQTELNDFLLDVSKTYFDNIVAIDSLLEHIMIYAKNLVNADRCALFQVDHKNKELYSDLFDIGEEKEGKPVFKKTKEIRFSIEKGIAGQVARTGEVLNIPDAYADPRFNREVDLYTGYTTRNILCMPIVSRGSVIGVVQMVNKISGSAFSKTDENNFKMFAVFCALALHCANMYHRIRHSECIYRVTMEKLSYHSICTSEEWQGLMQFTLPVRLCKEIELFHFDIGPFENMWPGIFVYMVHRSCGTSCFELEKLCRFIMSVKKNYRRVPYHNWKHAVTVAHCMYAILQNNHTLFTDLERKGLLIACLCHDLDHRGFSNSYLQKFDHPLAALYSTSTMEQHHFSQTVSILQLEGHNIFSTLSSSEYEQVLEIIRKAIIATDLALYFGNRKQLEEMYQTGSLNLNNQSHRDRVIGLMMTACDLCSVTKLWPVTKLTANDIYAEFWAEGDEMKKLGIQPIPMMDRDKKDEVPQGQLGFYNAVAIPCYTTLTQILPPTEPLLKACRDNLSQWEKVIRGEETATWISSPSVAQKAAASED

IC50: 1600 nM
Substance: Zinc42657360
